Experiments:
Carbonic anhydrase 4 = target: T1, Carbonic anhydrase 4 (Bos taurus, UniProt Q95323)
T1 sequence (Q95323 whole entry): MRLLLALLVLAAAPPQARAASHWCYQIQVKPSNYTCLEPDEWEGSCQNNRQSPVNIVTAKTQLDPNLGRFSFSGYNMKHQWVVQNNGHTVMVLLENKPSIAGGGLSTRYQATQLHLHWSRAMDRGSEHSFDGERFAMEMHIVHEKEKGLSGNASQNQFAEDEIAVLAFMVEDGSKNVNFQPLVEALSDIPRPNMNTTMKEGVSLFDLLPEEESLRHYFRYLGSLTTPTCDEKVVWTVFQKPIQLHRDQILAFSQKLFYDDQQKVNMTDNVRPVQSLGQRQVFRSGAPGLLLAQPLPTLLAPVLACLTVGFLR
Description: Inhibitory activity against bovine carbonic anhydrase IV

Carbonic anhydrase 1 = Carbonic anhydrase 1 (Homo sapiens, UniProt P00915)
Sequence of Carbonic anhydrase 1 (P00915 whole entry): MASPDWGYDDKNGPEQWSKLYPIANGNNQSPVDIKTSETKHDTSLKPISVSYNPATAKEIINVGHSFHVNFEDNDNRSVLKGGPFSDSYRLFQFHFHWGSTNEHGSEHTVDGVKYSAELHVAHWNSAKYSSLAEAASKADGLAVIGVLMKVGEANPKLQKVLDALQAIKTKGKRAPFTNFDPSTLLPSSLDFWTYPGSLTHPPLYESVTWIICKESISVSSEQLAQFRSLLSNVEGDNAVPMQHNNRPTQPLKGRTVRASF
Description: Inhibitory activity against Human carbonic anhydrase I

Row | SMILES | Ki (Carbonic anhydrase 4) | Ki (Carbonic anhydrase 1)
1 | NS(=O)(=O)c1ccc(NC(=O)CN(CC(=O)O)CC(=O)O)c(Br)c1 | 53 nM | 620 nM
2 | NS(=O)(=O)c1cccc(NC(=O)CN(CCOCCOCCN(CC(=O)O)CC(=O)O)CC(=O)O)c1 | 500 nM | 7450 nM
3 | NS(=O)(=O)c1cccc(NC(=O)CNCC(=O)O)c1 | 1500 nM | 23000 nM
4 | NS(=O)(=O)c1ccc(COC(=O)CN(CCOCCOCCN(CC(=O)O)CC(=O)OCc2ccc(S(N)(=O)=O)cc2)CC(=O)O)cc1 | 150 nM | 335 nM
5 | NS(=O)(=O)c1ccccc1NC(=O)CN(CCN(CC(=O)O)CC(=O)Nc1ccccc1S(N)(=O)=O)CC(=O)O | 650 nM | 8100 nM
6 | NS(=O)(=O)c1nnc(NC(=O)CNCC(=O)O)s1 | 265 nM | 415 nM
7 | Cn1nc(S(N)(=O)=O)s/c1=N/C(=O)CNCCNCC(=O)O | 76 nM | 275 nM
8 | NS(=O)(=O)c1ccc(CCNC(=O)CN(CCN(CC(=O)O)CC(=O)O)CC(=O)O)cc1 | 75 nM | 650 nM
9 | NS(=O)(=O)c1ccc(NNC(=O)CN(CCN(CC(=O)O)CC(=O)O)CC(=O)O)cc1 | 750 nM | 16000 nM
10 | NS(=O)(=O)c1ccc(COC(=O)CNCCNCC(=O)O)cc1 | 350 nM | 1020 nM
11 | NS(=O)(=O)c1ccc(CNC(=O)CN(CCOCCOCCN(CC(=O)O)CC(=O)NCc2ccc(S(N)(=O)=O)cc2)CC(=O)O)cc1 | 39 nM | 350 nM
12 | NS(=O)(=O)c1ccc(NC(=O)CN(CCN(CC(=O)O)CC(=O)Nc2ccc(S(N)(=O)=O)cc2Br)CC(=O)O)c(Br)c1 | 34 nM | 105 nM
13 | NS(=O)(=O)c1ccc(NC(=O)CNCCNCC(=O)O)c(Cl)c1 | 155 nM | 900 nM
14 | NS(=O)(=O)c1ccc(CNC(=O)CN(CCOCCOCCN(CC(=O)O)CC(=O)O)CC(=O)O)cc1 | 48 nM | 610 nM
15 | NS(=O)(=O)c1ccc(COC(=O)CN(CCN(CC(=O)O)c2ccccc2O)c2ccccc2O)cc1 | 320 nM | 945 nM
16 | NS(=O)(=O)c1ccc(NNC(=O)CN(CCN(CC(=O)O)CC(=O)NNc2ccc(S(N)(=O)=O)cc2)CC(=O)O)cc1 | 510 nM | 12500 nM
17 | NS(=O)(=O)c1ccc(COC(=O)CN(CC(=O)O)CC(=O)O)cc1 | 350 nM | 1200 nM
18 | NS(=O)(=O)c1ccc(CCOC(=O)CNCCNCC(=O)O)cc1 | 330 nM | 1000 nM
19 | NS(=O)(=O)c1ccc(NC(=O)CNCC(=O)O)c(Cl)c1 | 165 nM | 975 nM
20 | NS(=O)(=O)c1ccc(NC(=O)CNCC(=O)O)c(F)c1 | 145 nM | 1300 nM
21 | NS(=O)(=O)c1ccc(NNC(=O)CN(CCN(CC(=O)O)c2ccccc2O)c2ccccc2O)cc1 | 840 nM | 21000 nM
22 | NS(=O)(=O)c1ccc(CCNC(=O)CNCCNCC(=O)O)cc1 | 250 nM | 1540 nM
23 | NS(=O)(=O)c1ccc(CNC(=O)CNCCNCC(=O)O)cc1 | 245 nM | 1760 nM

Row | SMILES | Ki (Carbonic anhydrase 4) | Ki (Carbonic anhydrase 1)
24 | NS(=O)(=O)c1ccc(NC(=O)CNCCNCC(=O)O)c(Br)c1 | 54 nM | 380 nM
25 | NS(=O)(=O)c1ccc(NC(=O)CN(CCOCCOCCN(CC(=O)O)CC(=O)Nc2ccc(S(N)(=O)=O)cc2)CC(=O)O)cc1 | 150 nM | 3800 nM
26 | NS(=O)(=O)c1ccccc1NC(=O)CNCCNCC(=O)O | 1020 nM | 20500 nM
27 | NS(=O)(=O)c1ccccc1NC(=O)CN(CC(=O)O)CC(=O)O | 1200 nM | 25800 nM
28 | NS(=O)(=O)c1cccc(NC(=O)CNCCNCC(=O)O)c1 | 1010 nM | 13000 nM
29 | NS(=O)(=O)c1ccc(NC(=O)CNCC(=O)O)cc1 | 450 nM | 21300 nM
30 | NS(=O)(=O)c1ccc(COC(=O)CN(CCN(CC(=O)O)CC(=O)O)CC(=O)O)cc1 | 335 nM | 850 nM
31 | NS(=O)(=O)c1ccc(NNC(=O)CN(CCOCCOCCN(CC(=O)O)CC(=O)O)CC(=O)O)cc1 | 620 nM | 12500 nM
32 | NS(=O)(=O)c1ccc(NC(=O)CN(CCN(CC(=O)O)CC(=O)O)CC(=O)O)c(F)c1 | 40 nM | 360 nM
33 | NS(=O)(=O)c1ccc(NC(=O)CN(CC(=O)O)CC(=O)O)c(I)c1 | 110 nM | 510 nM
34 | NS(=O)(=O)c1ccc(CCOC(=O)CN(CCN(CC(=O)O)c2ccccc2O)c2ccccc2O)cc1 | 300 nM | 760 nM
35 | NS(=O)(=O)c1cc(S(N)(=O)=O)c(NC(=O)CNCCNCC(=O)O)cc1Cl | 135 nM | 250 nM
36 | NS(=O)(=O)c1ccc(CCOC(=O)CNCC(=O)O)cc1 | 340 nM | 1200 nM
37 | NS(=O)(=O)c1nnc(NC(=O)CCNC(=O)CN(CC(=O)O)CC(=O)O)s1 | 45 nM | 268 nM
38 | NS(=O)(=O)c1cc(S(N)(=O)=O)c(NC(=O)CN(CCOCCOCCN(CC(=O)O)CC(=O)O)CC(=O)O)c(Cl)c1Cl | 35 nM | 50 nM
39 | NS(=O)(=O)c1ccc(NC(=O)CN(CCN(CC(=O)O)c2ccccc2O)c2ccccc2O)c(Cl)c1 | 108 nM | 870 nM
40 | NS(=O)(=O)c1cc(S(N)(=O)=O)c(NC(=O)CNCCNCC(=O)O)c(Cl)c1Cl | 110 nM | 290 nM
41 | NS(=O)(=O)c1ccc(CCOC(=O)CN(CCOCCOCCN(CC(=O)O)CC(=O)O)CC(=O)O)cc1 | 155 nM | 430 nM
42 | NS(=O)(=O)c1ccc(CNC(=O)CN(CC(=O)O)CC(=O)O)cc1 | 256 nM | 3500 nM
43 | NS(=O)(=O)c1ccc(COC(=O)CN(CCOCCOCCN(CC(=O)O)CC(=O)O)CC(=O)O)cc1 | 250 nM | 500 nM
44 | NS(=O)(=O)c1ccc(COC(=O)CN(CCN(CC(=O)O)CC(=O)OCc2ccc(S(N)(=O)=O)cc2)CC(=O)O)cc1 | 200 nM | 460 nM
45 | NS(=O)(=O)c1ccccc1NC(=O)CN(CCOCCOCCN(CC(=O)O)CC(=O)Nc1ccccc1S(N)(=O)=O)CC(=O)O | 320 nM | 5600 nM

Stronger by Ki (Carbonic anhydrase 4), values ahead:

Row | Ki (Carbonic anhydrase 4) | Ki (Carbonic anhydrase 1) | SMILES
46 | 6 nM | 25 nM | NS(=O)(=O)c1nc2ccc(OCCOC(=O)CN(CCN(CC(=O)O)CC(=O)OCCOc3ccc4nc(S(N)(=O)=O)sc4c3)CC(=O)O)cc2s1
47 | 5 nM | 15 nM | NS(=O)(=O)c1nc2ccc(OCCOC(=O)CN(CCOCCOCCN(CC(=O)O)CC(=O)OCCOc3ccc4nc(S(N)(=O)=O)sc4c3)CC(=O)O)cc2s1
48 | 13 nM | 120 nM | NS(=O)(=O)c1nnc(NC(=O)CCNC(=O)CN(CCOCCOCCN(CC(=O)O)CC(=O)O)CC(=O)O)s1
49 | 32 nM | 290 nM | NS(=O)(=O)c1ccc(CCNC(=O)CN(CCOCCOCCN(CC(=O)O)CC(=O)O)CC(=O)O)cc1
50 | 13 nM | 48 nM | NS(=O)(=O)c1nc2ccc(OC(=O)CN(CC(=O)O)CC(=O)O)cc2s1
51 | 6 nM | 76 nM | NS(=O)(=O)c1nnc(NC(=O)CCNC(=O)CN(CCOCCOCCN(CC(=O)O)CC(=O)NCCC(=O)Nc2nnc(S(N)(=O)=O)s2)CC(=O)O)s1
52 | 13 nM | 52 nM | NS(=O)(=O)c1nc2ccc(NC(=O)CN(CCN(CC(=O)O)c3ccccc3O)c3ccccc3O)cc2s1
53 | 5 nM | 36 nM | Cn1nc(S(N)(=O)=O)s/c1=N/C(=O)CN(CCOCCOCCN(CC(=O)O)CC(=O)/N=c1/sc(S(N)(=O)=O)nn1C)CC(=O)O
54 | 8 nM | 39 nM | NS(=O)(=O)c1nc2ccc(OCCOC(=O)CN(CCN(CC(=O)O)CC(=O)O)CC(=O)O)cc2s1
55 | 13 nM | 62 nM | NS(=O)(=O)c1nc2ccc(NC(=O)CN(CC(=O)O)CC(=O)O)cc2s1
56 | 22 nM | 150 nM | NS(=O)(=O)c1ccc(NC(=O)CN(CCOCCOCCN(CC(=O)O)CC(=O)Nc2ccc(S(N)(=O)=O)cc2Cl)CC(=O)O)c(Cl)c1
57 | 30 nM | 230 nM | NS(=O)(=O)c1ccc(NC(=O)CN(CCOCCOCCN(CC(=O)O)CC(=O)O)CC(=O)O)c(Cl)c1
58 | 8 nM | 27 nM | NS(=O)(=O)c1nnc(NC(=O)CN(CCOCCOCCN(CC(=O)O)CC(=O)Nc2nnc(S(N)(=O)=O)s2)CC(=O)O)s1
59 | 8 nM | 37 nM | NS(=O)(=O)c1nc2ccc(OC(=O)CN(CCN(CC(=O)O)CC(=O)Oc3ccc4nc(S(N)(=O)=O)sc4c3)CC(=O)O)cc2s1
60 | 5 nM | 33 nM | NS(=O)(=O)c1nc2ccc(OC(=O)CN(CCOCCOCCN(CC(=O)O)CC(=O)O)CC(=O)O)cc2s1
61 | 25 nM | 85 nM | NS(=O)(=O)c1ccc(NC(=O)CN(CCOCCOCCN(CC(=O)O)CC(=O)Nc2ccc(S(N)(=O)=O)cc2Br)CC(=O)O)c(Br)c1
62 | 7 nM | 41 nM | NS(=O)(=O)c1nc2ccc(OCCOC(=O)CN(CCN(CC(=O)O)c3ccccc3O)c3ccccc3O)cc2s1
63 | 7 nM | 39 nM | NS(=O)(=O)c1nc2ccc(NC(=O)CN(CCOCCOCCN(CC(=O)O)CC(=O)O)CC(=O)O)cc2s1
64 | 14 nM | 50 nM | NS(=O)(=O)c1nc2ccc(OC(=O)CNCC(=O)O)cc2s1
65 | 9 nM | 54 nM | Cn1nc(S(N)(=O)=O)s/c1=N/C(=O)CN(CCN(CCN(CC(=O)O)CC(=O)/N=c1/sc(S(N)(=O)=O)nn1C)CC(=O)O)CC(=O)O
66 | 12 nM | 47 nM | NS(=O)(=O)c1nc2ccc(OC(=O)CN(CCN(CC(=O)O)c3ccccc3O)c3ccccc3O)cc2s1
67 | 21 nM | 49 nM | NS(=O)(=O)c1cc(S(N)(=O)=O)c(NC(=O)CN(CCOCCOCCN(CC(=O)O)CC(=O)Nc2c(S(N)(=O)=O)cc(S(N)(=O)=O)c(Cl)c2Cl)CC(=O)O)c(Cl)c1Cl
68 | 16 nM | 66 nM | Cn1nc(S(N)(=O)=O)s/c1=N/C(=O)CN(CCOCCOCCN(CC(=O)O)CC(=O)O)CC(=O)O

— ChEMBL document CHEMBL1135903 (J Med Chem, 2002)
